Test [1] has as its target Peroxisome proliferator-activated receptor gamma/Nuclear receptor coactivator 1 (Homo sapiens, UniProt P37231). The test can be described thus: TR-FRET dose response biochemical High Throughput Screening assay for agonists of the steroid receptor coactivator 1 (SRC-1) recruitment by the peroxisome proliferator-activated receptor gamma (PPAR gamma): non-selective agonists. [Related pubchem assays (depositor defined):AID1300, AID1808, AID504735, AID631]. Type of test: protein assay.

Test [2] concerns the target Peroxisome proliferator-activated receptor gamma/Nuclear receptor coactivator 3 (Homo sapiens, UniProt P37231). The test can be described thus: TR-FRET dose response biochemical High Throughput Screening assay for agonists of the steroid receptor coactivator 3 (SRC-3) recruitment by the peroxisome proliferator-activated receptor gamma (PPAR gamma): non-selective agonists. [Related pubchem assays: 1301 (Confirmation screen.), 1048 (Primary screen.)]. The class given is functional. In general terms: TR-FRET usually uses a lanthanide donor and a delayed reading to cut background.

The target of test [3] is Peroxisome proliferator-activated receptor gamma/Nuclear receptor coactivator 2 (Homo sapiens, UniProt P37231). The experiment in a line: TR-FRET dose response biochemical High Throughput Screening assay for agonists of the steroid receptor coactivator 2 (SRC-2) recruitment by the peroxisome proliferator-activated receptor gamma (PPAR gamma): non-selective agonists. [Related pubchem assays: 1297, 1032 ]. The class given is functional.
Chain of Peroxisome proliferator-activated receptor gamma/Nuclear receptor coactivator 2 (P37231 whole entry): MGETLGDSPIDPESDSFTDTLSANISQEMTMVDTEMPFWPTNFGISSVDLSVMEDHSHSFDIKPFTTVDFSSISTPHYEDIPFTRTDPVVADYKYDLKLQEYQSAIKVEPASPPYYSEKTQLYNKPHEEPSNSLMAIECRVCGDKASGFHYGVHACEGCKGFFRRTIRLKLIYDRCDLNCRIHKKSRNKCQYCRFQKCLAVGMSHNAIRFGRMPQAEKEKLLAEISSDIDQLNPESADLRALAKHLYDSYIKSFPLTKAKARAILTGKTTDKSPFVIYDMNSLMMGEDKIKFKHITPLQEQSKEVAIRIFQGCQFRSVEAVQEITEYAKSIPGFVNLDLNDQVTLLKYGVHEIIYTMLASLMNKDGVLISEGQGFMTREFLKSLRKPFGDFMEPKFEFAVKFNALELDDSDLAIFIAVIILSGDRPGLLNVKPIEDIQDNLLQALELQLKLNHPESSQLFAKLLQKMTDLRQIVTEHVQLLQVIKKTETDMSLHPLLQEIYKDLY
Chain of Peroxisome proliferator-activated receptor gamma/Nuclear receptor coactivator 2 (Q15596 whole entry, further chain): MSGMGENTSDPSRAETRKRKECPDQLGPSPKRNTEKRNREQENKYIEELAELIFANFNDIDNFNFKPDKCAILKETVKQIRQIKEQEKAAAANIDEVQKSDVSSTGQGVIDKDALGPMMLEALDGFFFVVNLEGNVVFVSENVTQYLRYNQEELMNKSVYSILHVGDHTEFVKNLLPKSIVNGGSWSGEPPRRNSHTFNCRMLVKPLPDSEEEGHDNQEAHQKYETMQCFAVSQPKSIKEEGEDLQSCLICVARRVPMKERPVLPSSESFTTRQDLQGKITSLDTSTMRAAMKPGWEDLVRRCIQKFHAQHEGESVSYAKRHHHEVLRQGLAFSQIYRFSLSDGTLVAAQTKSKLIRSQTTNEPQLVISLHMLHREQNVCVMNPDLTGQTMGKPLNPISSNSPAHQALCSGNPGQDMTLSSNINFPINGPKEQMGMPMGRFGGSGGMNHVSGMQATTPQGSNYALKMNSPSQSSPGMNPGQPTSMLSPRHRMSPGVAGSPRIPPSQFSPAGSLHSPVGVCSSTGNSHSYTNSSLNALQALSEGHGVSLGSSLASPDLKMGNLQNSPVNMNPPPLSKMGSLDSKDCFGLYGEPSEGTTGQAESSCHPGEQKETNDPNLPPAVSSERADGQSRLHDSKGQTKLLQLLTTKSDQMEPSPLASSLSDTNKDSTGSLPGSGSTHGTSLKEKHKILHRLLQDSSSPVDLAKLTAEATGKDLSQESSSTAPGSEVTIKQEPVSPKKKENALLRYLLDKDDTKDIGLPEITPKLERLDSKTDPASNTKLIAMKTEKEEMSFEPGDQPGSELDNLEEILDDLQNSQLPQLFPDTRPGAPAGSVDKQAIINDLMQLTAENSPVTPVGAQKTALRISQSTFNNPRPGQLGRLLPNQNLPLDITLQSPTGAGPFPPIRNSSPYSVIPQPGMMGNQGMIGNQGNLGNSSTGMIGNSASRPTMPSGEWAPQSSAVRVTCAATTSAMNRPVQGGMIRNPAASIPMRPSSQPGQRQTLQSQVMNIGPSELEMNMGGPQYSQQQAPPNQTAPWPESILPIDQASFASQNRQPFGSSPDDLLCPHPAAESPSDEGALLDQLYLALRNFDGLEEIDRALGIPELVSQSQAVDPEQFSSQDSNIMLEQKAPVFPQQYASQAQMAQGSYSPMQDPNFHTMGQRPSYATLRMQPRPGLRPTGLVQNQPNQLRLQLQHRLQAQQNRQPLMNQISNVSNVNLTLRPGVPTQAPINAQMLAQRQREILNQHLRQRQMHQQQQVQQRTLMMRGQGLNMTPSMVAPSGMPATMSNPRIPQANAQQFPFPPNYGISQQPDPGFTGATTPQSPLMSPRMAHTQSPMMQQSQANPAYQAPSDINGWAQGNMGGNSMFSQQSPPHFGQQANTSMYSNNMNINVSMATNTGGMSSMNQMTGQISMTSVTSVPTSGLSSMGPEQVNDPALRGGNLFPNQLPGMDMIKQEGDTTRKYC

In another test the test system is CHO. The experiment in a line: cytotoxicity in TLR9-MyD88 CHO cells, dose response, cytotoxicity control for TLR9-MyD88 binding inhibitor project, cell-based, luminescence (AID 588339).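 Also: CHO cells stably coexpressing TLR9 and MyD88 fusions from primary screen; compound exposure lasted 48 hours before viability readout.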 Type of test: functional, hamster. The settings on record: Cricetulus griseus.
Test [4] deals with Induced myeloid leukemia cell differentiation protein Mcl-1 (Homo sapiens, UniProt Q07820). Type of test: functional.
Test [5] has as its target Protein-tyrosine kinase 2-beta (Homo sapiens, UniProt Q14289).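 Also: potency of inhibitors of PYK2 kinase phosphorylation of poly-GT substrate.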
Test [6] has as its target T1, Estrogen receptor beta (Homo sapiens, UniProt Q92731).
For test [7], the target named is Luciferin 4-monooxygenase (Photinus pyralis, UniProt P08659). The test can be described thus: Counter Screen for Luciferase-based Assay Positives. [Related pubchem assays: 620, 618, 411 ]. For orientation: Counterscreens check selectivity or assay interference.
Chain of Luciferin 4-monooxygenase (P08659 whole entry): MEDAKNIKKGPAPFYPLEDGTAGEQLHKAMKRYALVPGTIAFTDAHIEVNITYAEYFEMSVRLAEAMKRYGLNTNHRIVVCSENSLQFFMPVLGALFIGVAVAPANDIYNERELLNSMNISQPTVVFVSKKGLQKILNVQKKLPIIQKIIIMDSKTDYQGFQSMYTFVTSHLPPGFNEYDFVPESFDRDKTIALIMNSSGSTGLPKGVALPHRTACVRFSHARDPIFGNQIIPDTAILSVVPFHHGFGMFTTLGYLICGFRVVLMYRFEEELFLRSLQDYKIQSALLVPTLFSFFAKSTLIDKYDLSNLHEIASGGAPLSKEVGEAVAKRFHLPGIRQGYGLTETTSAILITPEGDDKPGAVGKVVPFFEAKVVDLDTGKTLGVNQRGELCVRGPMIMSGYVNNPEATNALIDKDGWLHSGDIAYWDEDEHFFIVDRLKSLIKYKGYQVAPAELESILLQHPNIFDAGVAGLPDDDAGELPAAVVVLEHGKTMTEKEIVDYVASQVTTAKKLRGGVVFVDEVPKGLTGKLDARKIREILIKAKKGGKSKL
The target in a further test is T2, Estrogen receptor (Homo sapiens, UniProt P03372).
T2 sequence (P03372 whole entry): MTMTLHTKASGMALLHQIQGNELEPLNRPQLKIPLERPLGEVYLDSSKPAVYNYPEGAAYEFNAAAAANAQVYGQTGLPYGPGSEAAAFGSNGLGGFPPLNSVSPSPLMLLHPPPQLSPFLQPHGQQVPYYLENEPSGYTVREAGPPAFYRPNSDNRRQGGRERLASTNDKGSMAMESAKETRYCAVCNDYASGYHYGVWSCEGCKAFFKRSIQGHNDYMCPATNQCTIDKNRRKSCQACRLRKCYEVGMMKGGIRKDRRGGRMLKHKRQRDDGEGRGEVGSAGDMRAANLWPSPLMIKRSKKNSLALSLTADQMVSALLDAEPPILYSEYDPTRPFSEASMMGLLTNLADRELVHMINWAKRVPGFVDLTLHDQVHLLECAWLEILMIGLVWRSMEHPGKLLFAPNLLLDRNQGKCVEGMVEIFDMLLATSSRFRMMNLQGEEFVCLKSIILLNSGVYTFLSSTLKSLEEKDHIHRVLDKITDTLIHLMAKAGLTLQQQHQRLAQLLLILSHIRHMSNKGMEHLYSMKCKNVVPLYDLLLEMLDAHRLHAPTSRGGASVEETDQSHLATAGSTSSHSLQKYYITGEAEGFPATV

Test [8] has as its target T1, Estrogen receptor beta. The test can be described thus: ERβ–SRC-3 coactivator interaction inhibitors, confirmation, orthogonal assay, biochemical, ELISA, streptavidin-HRP readout (AID 1060). A general note: An ELISA detects its analyte on a solid surface through an enzyme-linked reagent.
Another test deals with HT-1080. The experiment in a line: cytotoxicity in HT1080 fibrosarcoma cells, cell-based, fluorescence readout (AID 620). The class given is functional. As to conditions: Homo sapiens.
A further test deals with T3, Bcl-2-like protein 10 (Homo sapiens, UniProt Q9HD36).
T3 sequence (Q9HD36 whole entry): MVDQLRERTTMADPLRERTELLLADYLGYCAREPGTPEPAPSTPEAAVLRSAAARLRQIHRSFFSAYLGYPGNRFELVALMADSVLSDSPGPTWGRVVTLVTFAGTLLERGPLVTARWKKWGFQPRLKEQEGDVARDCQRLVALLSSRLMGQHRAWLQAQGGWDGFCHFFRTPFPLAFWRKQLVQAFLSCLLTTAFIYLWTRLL
The test can be described thus: displacers of TR3 peptide from Bcl-B, primary screen, selectivity assay for Bfl-1 inhibitor project, biochemical, fluorescence polarization, FITC-TR3 peptide (AID 748).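 Also: fluorescence polarization from a fluorescein-labelled TR3 peptide binding purified Bcl-B.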

Test [9] addresses T4, Corticotropin-releasing factor receptor 2/Corticotropin-releasing factor-binding protein (Homo sapiens, UniProt P24387+Q13324).
T4 sequence (Q13324 whole entry): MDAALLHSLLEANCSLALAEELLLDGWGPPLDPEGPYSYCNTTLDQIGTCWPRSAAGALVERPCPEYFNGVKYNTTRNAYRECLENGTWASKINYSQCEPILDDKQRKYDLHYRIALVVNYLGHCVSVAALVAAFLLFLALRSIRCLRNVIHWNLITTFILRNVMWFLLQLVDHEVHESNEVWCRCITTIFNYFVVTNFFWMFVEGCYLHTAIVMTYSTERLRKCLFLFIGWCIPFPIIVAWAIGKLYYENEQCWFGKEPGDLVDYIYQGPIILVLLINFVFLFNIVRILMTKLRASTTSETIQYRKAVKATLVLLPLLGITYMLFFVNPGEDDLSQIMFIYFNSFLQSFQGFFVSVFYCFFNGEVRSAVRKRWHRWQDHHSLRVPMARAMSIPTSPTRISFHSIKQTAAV
T4 sequence (P24387 whole entry): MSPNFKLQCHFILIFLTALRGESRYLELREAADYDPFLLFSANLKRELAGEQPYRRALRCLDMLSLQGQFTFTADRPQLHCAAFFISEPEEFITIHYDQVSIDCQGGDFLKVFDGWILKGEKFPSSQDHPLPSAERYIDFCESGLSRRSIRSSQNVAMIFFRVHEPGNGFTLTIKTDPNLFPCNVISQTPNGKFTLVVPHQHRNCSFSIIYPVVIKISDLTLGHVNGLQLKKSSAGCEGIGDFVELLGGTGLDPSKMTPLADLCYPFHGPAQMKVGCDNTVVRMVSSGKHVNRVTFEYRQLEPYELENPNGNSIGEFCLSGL
The test can be described thus: Dose Response confirmation of uHTS hits for small molecule antagonists of the CRF-binding protein and CRF-R2 receptor complex. Type of test: functional. As to conditions: read-out: IC50_Mean.

The target in test [10] is T4, Corticotropin-releasing factor receptor 2/Corticotropin-releasing factor-binding protein. The test can be described thus: activators of CRF receptor 2 with binding protein – uHTS hits, confirmation (AID 602473). As to conditions: read-out: EC50_Mean. The class given is functional.
The nature of test [11]: CRF-BP/CRF-R2 complex antagonists, dose response, cell-based, uHTS hits, 384-well (AID 651639). As to conditions: read-out: IC50_Mean. The class given is functional, Homo sapiens.
The next test relates to Escherichia coli. The test can be described thus: microbe, parasite or virus in culture.
In another test the test system is HEK293. The test can be described thus: cells. The class given is functional, cell-based. The settings on record: Homo sapiens.
The next test deals with Nonstructural protein 1 (Influenza A virus, UniProt Q194T2). The class given is functional, Influenza A virus (A/California/07/2009(H1N1)).
For test [12], the target named is T5, Nuclear receptor subfamily 0 group B member 1 (Homo sapiens, UniProt P51843).
T5 sequence (P51843 whole entry): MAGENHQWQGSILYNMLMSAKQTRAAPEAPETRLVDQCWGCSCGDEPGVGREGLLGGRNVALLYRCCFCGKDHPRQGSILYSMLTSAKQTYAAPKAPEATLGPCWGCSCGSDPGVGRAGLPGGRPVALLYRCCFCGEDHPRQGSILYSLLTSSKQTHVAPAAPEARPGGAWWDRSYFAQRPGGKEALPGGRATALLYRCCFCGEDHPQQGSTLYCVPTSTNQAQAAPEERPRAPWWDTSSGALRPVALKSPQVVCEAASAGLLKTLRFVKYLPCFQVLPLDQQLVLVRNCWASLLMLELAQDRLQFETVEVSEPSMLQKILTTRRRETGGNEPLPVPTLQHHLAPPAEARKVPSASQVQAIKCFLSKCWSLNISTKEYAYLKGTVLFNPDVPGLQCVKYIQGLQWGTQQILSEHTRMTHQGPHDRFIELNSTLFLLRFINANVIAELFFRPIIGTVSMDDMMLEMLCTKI
The test can be described thus: Luminescence-based cell-based high throughput dose response assay for inhibitors of the orphan nuclear receptor subfamily 0, group B, member 1 (DAX1; NR0B1). [Related pubchem assays (depositor defined):AID504766, AID504790]. Type of test: functional.

For test [13], the target named is T6, Heat shock factor protein 1 (Mus musculus, UniProt P38532).
T6 sequence (P38532 whole entry): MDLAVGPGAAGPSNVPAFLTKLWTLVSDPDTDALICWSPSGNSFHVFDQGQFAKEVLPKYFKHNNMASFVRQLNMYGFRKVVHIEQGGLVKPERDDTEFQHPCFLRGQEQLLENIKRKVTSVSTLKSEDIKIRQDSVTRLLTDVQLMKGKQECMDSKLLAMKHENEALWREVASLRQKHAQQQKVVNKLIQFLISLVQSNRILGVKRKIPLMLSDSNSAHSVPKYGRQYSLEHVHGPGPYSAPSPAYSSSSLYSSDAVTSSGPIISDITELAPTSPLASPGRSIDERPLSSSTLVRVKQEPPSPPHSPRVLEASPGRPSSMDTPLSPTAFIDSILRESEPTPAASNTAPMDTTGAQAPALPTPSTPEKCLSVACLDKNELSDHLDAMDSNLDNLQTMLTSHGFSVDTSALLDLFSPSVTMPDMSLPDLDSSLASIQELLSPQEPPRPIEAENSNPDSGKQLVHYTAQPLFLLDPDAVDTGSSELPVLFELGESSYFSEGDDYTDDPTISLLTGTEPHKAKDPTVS
The test can be described thus: inhibition of MG132-induced HSE-luciferase signal, confirmation, cell-based, NIH3T3, luminescence, dose retest (AID 2382).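 Also: NIH3T3 fibroblasts with HSF1-driven luciferase reporter stressed by proteasome inhibitor MG132; luminescence from HSF1-driven luciferase expression after 8 hours of MG132 stress.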 Type of test: functional.

The structures appear in SMILES notation. Activity calls are given as the source filed them.

The AC50 is the midpoint of the concentration-response curve, whichever way the signal moves.

Chain of Peroxisome proliferator-activated receptor gamma/Nuclear receptor coactivator 3 (P37231 whole entry): as the sequence (P37231 whole entry) above
Chain of Peroxisome proliferator-activated receptor gamma/Nuclear receptor coactivator 3 (Q9Y6Q9 whole entry, further chain): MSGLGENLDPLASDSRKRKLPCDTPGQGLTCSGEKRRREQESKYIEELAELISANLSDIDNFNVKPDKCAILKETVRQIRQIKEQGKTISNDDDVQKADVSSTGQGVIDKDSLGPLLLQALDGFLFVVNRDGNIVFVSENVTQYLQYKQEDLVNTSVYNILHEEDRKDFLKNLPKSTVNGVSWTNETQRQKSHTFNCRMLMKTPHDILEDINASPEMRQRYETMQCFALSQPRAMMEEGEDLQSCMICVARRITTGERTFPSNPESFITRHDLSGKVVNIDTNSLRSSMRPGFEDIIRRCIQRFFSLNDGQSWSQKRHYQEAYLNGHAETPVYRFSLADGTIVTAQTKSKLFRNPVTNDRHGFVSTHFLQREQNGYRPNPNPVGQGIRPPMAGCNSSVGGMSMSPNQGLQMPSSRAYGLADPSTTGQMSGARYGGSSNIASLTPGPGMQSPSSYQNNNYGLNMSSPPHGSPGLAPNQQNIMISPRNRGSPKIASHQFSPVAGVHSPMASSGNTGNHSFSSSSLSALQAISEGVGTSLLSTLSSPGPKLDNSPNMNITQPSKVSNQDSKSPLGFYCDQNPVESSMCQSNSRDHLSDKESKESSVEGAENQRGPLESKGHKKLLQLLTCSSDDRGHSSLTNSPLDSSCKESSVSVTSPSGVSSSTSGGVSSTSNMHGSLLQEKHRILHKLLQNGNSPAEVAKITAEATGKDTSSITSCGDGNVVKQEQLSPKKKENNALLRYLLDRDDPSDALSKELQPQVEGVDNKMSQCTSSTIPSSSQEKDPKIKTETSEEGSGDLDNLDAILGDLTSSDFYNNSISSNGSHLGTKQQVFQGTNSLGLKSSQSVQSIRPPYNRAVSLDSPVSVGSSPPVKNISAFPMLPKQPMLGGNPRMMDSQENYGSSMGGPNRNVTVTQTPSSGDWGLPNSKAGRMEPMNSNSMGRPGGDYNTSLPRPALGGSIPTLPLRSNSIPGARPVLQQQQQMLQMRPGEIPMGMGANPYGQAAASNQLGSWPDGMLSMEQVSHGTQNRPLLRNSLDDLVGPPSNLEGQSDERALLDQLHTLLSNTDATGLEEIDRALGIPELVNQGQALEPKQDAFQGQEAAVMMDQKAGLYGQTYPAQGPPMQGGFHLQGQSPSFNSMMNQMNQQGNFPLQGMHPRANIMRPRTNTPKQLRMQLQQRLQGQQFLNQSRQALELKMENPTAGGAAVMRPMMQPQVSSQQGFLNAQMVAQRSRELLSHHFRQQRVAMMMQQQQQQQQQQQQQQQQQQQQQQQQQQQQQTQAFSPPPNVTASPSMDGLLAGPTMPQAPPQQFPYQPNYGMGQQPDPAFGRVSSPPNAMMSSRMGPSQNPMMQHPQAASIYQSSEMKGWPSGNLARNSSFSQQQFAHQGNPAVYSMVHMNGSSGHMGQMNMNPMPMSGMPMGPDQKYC
T1 sequence (Q92731 whole entry): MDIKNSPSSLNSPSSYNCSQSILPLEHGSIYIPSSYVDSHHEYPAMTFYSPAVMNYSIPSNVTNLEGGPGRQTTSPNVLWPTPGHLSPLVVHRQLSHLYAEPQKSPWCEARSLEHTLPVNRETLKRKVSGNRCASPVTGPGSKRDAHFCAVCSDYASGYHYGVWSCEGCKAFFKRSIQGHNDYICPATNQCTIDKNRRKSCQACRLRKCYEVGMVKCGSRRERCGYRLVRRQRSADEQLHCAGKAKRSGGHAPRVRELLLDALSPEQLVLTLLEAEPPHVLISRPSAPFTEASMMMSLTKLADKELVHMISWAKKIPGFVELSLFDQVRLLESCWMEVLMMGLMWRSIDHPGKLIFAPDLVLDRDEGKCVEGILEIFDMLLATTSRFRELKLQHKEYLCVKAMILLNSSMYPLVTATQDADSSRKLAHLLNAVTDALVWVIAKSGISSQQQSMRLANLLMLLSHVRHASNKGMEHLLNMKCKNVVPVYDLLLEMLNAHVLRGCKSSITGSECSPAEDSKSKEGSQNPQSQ

Regarding `COc1ccc(C2CC(c3ccc(Br)cc3)=NN2C(S)=Nc2ccccc2)cc1` (stereo not drawn), the EC50 is 31.8 µM (inactive) in test [1], > 79.4 µM (not active) in test [2] and 30.2 µM (not active) in [3].
For the compound `COc1ccc(C(=O)c2sc3nc(-c4ccccc4)ccc3c2N)cc1OC`, the figures for the IC50 (with CHO; in test [4]; in test [5]) were 27.3 µM (inactive), 1.27 µM (not active) and 12 µM (not active), respectively.
On to `CCc1ccc(NC(=O)c2noc3c2CCC3)cc1`, for which the IC50 is 5.5 µM (active) on Estrogen receptor beta [6], 7.94 µM (active) at Estrogen receptor, < 23 nM (not active) against Estrogen receptor beta [8] and 21.7 µM (active) at Bcl-2-like protein 10. Moreover, the EC50 was 1.4 µM (active) in test [7] and > 50 µM (not active) in the test with HT-1080.
`O=C(NC(Cc1ccccc1)c1nc2ccccc2[nH]1)c1ccc(Cl)c([N+](=O)[O-])c1` (stereo not drawn): the IC50 in [9] is 11.6 µM (active); in test [11], 4.96 µM (active). The EC50 in test [10] was > 53 µM (inactive). Further, the concentration at half-maximal activity (AC50) in the test on Escherichia coli was 25 µM (active).
Turning to `Clc1ccc(-c2nnc(N3CCCC3)nn2)cc1`, the IC50 is > 67.5 µM (inactive) with HEK293, > 100 µM (active) on Nonstructural protein 1 and > 67.5 µM (inactive) in test [12]. Further, the EC50 in test [7] is 1.39 µM (active); in the test on HT-1080, > 50 µM (not active).
With `COC(C(=O)Nc1ccnn1C1CCN(Cc2ccc(C)o2)CC1)c1ccccc1` (stereo not drawn), in the test on Escherichia coli, the AC50 is 74.5 µM (active).
Regarding `Nc1c(O)nc(O)nc1C(=O)OCC(=O)NCc1ccccc1`, the IC50 (with HEK293; in test [12]) was > 67.5 µM (inactive) in each case.
Take `O=C1c2ccccc2C(=O)N1CCc1c[nH]c2ccccc12`: the IC50 (in the test on HEK293; in [12]) was > 67.5 µM (inactive) in each case.
As for `N#Cc1cc(C(=O)c2cc(Br)ccc2O)cn(Cc2ccccc2)c1=O`, the EC50 was > 79.4 µM (inactive) in [1], > 79.4 µM (not active) in [2] and > 79.4 µM (not active) in test [3].
As to `Cn1c(S)nnc1-c1sc2cc(C(F)(F)F)cnc2c1-c1cccnc1`, the EC50 was 4.86 µM (active) in [1], > 195 µM (not active) in test [13], 20.2 µM (not active) in test [2] and 7.93 µM (active) in test [3].

Source of the values: ChEMBL document CHEMBL1201862, “PubChem BioAssay data set” (2004).
